Consider six compounds from patent publication US20190022110A1, “AQUEOUS BASED CAPSAICINOID FORMULATIONS AND METHODS OF MANUFACTURE AND USE” (VIZURI HEALTH SCIENCES LLC, priority 2012, published 2019).

Values after ≈ are worked out from the molar mass of the structure shown.

For orientation: solubility means how much of the substance goes into solution per volume. Higher therefore signals a readily soluble substance.

For series [1] the following is noted: cited from earlier work.
In another series the test system is peripheral nociceptors. The note with it: cited from earlier work.
A short description of the next series: physchem. Conditions: for solubility: aqueous with cosolvent or surfactant or cyclodextrin. The procedure: The teachings of this application were utilized in solubilizing capsaicin in a high purity PS 80 obtained from Croda Inc.
• 1. 10 grams of PS 80 are added to a 50 ml “Pyrex” glass vial. • 2. 2 grams of Trans-Capsaicin are added to the PS 80 in Step 1. • 3. The mixture from Step 2 is heated to ˜55° C. to dissolve the Trans-Capsaicin and form the Trans-Capsaicin/PS80 concentrate.

The subject of a further series is arthritic knee joints. Briefly: Clinical study: corticosteroid pretreatment and pain due to intra-articular capsaicin injection. In kind it is in vivo, human. As for the experimental part: This study examined the administration of a corticosteroid as an adjunctive agent prior to the administration of capsaicin to attenuate the burning and stinging effect resulting for the intra-articular injection of capsaicin into the knee joint.
Tests were conducted to evaluate the effectiveness of a corticosteroid injection into a site prior to injection of a capsaicin formulation. Subjects with arthritic knee joints were selected and treated as follows: • The knee joint to be treated was cleaned with Betadine or other suitable antiseptic agent. • A […].
Procedures and resulting pain level experienced by the injection of subjects injected with a 0.2 mg dose level of the capsaicin formulation as a function of elapsed time are summarized in Tables IX to XV. […] A description of the 6 knees treated with the capsaicin injections follows.

The conditions of series [2]: in vivo; cited from earlier work.
Where [3] appears, read: knee #1, patient #1, Depo-Medrol, no Lidocaine, 0.2 mg capsaicin.
Where [4] appears, read: knee #2, patient #2, Depo-Medrol, Lidocaine, 0.2 mg capsaicin.
Where [5] appears, read: knee #3, patient #3, Depo-Medrol, Lidocaine, 0.2 mg capsaicin.
[6] abbreviates: knee #4, patient #4 left, Depo-Medrol, gel pack, Lidocaine, 0.2 mg capsaicin.
Setting [7] is: knee #5, patient #4 right, no corticosteroid, Lidocaine, 0.2 mg capsaicin.
Setting [8] is: knee #6, patient #1 right, Depo-Medrol, cold pack, Lidocaine, 0.2 mg capsaicin.

For the compound `CCOC(=O)c1ccc(N)cc1` [Benzocaine], in series [1], the “Aqueous Soluble” value was “sparingly” and the “Oil Soluble” value is “soluble”.

`COc1cc(CNC(=O)CCCC/C=C/C(C)C)ccc1O` [Capsaicin]: the “duration of subsequent mild pain” value in the series on peripheral nociceptors (injectable capsaicin formulations, after the intense B&S pain) was 1 to 2 h. For the same compound, the “duration of intense burning and stinging (B&S) pain” value in the series on peripheral nociceptors (injectable capsaicin formulations) is reported as “up to 1 hour”. For the same compound, in the series with peripheral nociceptors (upon capsaicin injection in clinical trials), the “persistence of spontaneous burning pain and hyperalgesia” value is “up to 60 minutes”. In the series “physchem”, the “capsaicin concentration achieved in PS 80” value was 200 mg/mL, the “capsaicin solubility with PEG-400 compared to PS80” value is on record as “did not achieve the capsaicin solubility levels” and the “supersaturation of Capsaicin/PS 80 solution” value is recorded as “not supersaturated”. Besides, in “physchem” (PS 80 and capsaicin added to water, then heated to ~70° C.-90° C.), the “dissolution of capsaicin without pre-formed concentrate” value is listed as “only a fraction of the capsaicin dissolving”. The same compound displayed a solubility in the series “physchem” (aqueous capsaicin solubility level) of 20000 µg/mL (≈ 65.5 mM). In addition, the concentration in solution in “physchem” (aqueous capsaicin solubility level, 2 ml capsaicin/PS 80 concentrate added to 98 grams of ~70° C. water, cooled to room temperature) (solubility) came to 4000 µg/mL (≈ 13.1 mM). In “physchem” (increase of aqueous solubility of capsaicin), this compound showed a solubility of about 1000 µg/mL (≈ 3.27 mM). In series [1], the “Aqueous Soluble” value is recorded as “insoluble” and the “Oil Soluble” value is listed as “soluble”. In addition, the “pain status of treated knees as of the date of filing” value with arthritic knee joints (all patients, 0.2 mg capsaicin intra-articular) is “remain pain free”. Moreover, the duration pain free result in the series on arthritic knee joints (in one case) is on record as “over 3 weeks”. Besides, in the series with arthritic knee joints (setting [3]), the “duration of extreme pain following capsaicin injection” value was “about 1 hour”, the “relief of arthritic pain symptoms” value was “significant relief of their arthritic pain symptoms” and the “time of procedure until relief of arthritic pain symptoms” value is about 80 min. In addition, in the series on arthritic knee joints (setting [4]), the “relief of arthritic pain symptoms” value is recorded as “complete relief of their osteoarthritic pain symptoms”; the “time until procedure completed and pain relief” value is “about 30 minutes”. In the series on arthritic knee joints (setting [5]), the “relief of arthritic pain symptoms” value was “complete relief for their painful arthritic symptoms”; the “time until procedure concluded and pain relief” value is recorded as “about 23 minutes”. For the same compound, in the series on arthritic knee joints (setting [6]), the “relief of arthritic pain symptoms” value was “complete relief of their painful severe osteoarthritis pain” and the “time pain level remained at a mild level before complete relief” value is on record as “about 13 minutes”. In addition, in the series with arthritic knee joints (setting [7]), the “relief of arthritic pain symptoms” value was “alleviated their painful arthritic symptoms” and the “time until arthritic symptoms alleviated” value is about 25 min. Also, in the series on arthritic knee joints (setting [8]), the “relief of arthritic pain symptoms” value is on record as “complete relief of their painful arthritic symptoms”; the “time until procedure concluded and pain relief” value is reported as “about 17 minutes”.

With `CCO` [Ethyl Alcohol], in series [1], the “Aqueous Soluble” value was “miscible” and the “Oil Soluble” value is “soluble”.

As to `CC1CCC(C(C)C)C(O)C1` (stereo not drawn) [Menthol], in series [1], the “Aqueous Soluble” value is listed as “slightly” and the “Oil Soluble” value is given as “soluble”.

Consider `CCCNC(C)C(=O)Nc1ccccc1C` (stereo not drawn) [Prilocaine], for which, in series [1], the “Aqueous Soluble” value is “sparingly” and the “Oil Soluble” value is on record as “soluble”.

As to Polyethylene glycol [PEG], the systemic absorption entry in series [2] is reported as “less than 0.5%”.
